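Five compound concentrations were applied to cells in 96-well plates for 48 hours; endpoints were derived by simple linear interpolation of the resulting dose-response curve. Definition used: TGI = concentration required for complete inhibition of growth.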
Experiments:
Test in all cases: NCI anticancer screen, dose series, 48 h
MDA-N = tested on: MDA-N
LOX IMVI melanoma = tested on: LOX IMVI melanoma
IGROV1 ovarian = tested on: IGROV1 ovarian
SK-OV-3 ovarian = tested on: SK-OV-3 ovarian
SNB-19 CNS = tested on: SNB-19 CNS
A498 renal = tested on: A498 renal
SW-620 colon = tested on: SW-620 colon
COLO 205 colon = tested on: COLO 205 colon
K-562 leukemia = tested on: K-562 leukemia
HCT-116 colon = tested on: HCT-116 colon
HOP-92 NSCLC = tested on: HOP-92 NSCLC
A549 NSCLC = tested on: A549 NSCLC
MOLT-4 leukemia = tested on: MOLT-4 leukemia
NCI-H226 lung = tested on: NCI-H226 lung
TK-10 renal = tested on: TK-10 renal
BT-549 breast = tested on: BT-549 breast
SN12C renal = tested on: SN12C renal
MDA-MB-435 = tested on: MDA-MB-435
OVCAR-4 ovarian = tested on: OVCAR-4 ovarian
786-0 renal = tested on: 786-0 renal
SF-295 CNS = tested on: SF-295 CNS
UO-31 renal = tested on: UO-31 renal
HOP-62 NSCLC = tested on: HOP-62 NSCLC
OVCAR-8 ovarian = tested on: OVCAR-8 ovarian
NCI-H522 lung = tested on: NCI-H522 lung
NCI/ADR-RES ovarian = tested on: NCI/ADR-RES ovarian
CAKI-1 renal = tested on: CAKI-1 renal
EKVX NSCLC = tested on: EKVX NSCLC
MALME-3M melanoma = tested on: MALME-3M melanoma
U251 CNS = tested on: U251 CNS
OVCAR-3 ovarian = tested on: OVCAR-3 ovarian
UACC-62 melanoma = tested on: UACC-62 melanoma
M14 melanoma = tested on: M14 melanoma
NCI-H23 lung = tested on: NCI-H23 lung
MCF7 breast = tested on: MCF7 breast
SK-MEL-2 melanoma = tested on: SK-MEL-2 melanoma
DU-145 prostate = tested on: DU-145 prostate
CCRF-CEM leukemia = tested on: CCRF-CEM leukemia
KM12 colon = tested on: KM12 colon
ACHN renal = tested on: ACHN renal
PC-3 prostate = tested on: PC-3 prostate
SF-268 CNS = tested on: SF-268 CNS
UACC-257 melanoma = tested on: UACC-257 melanoma
OVCAR-5 ovarian = tested on: OVCAR-5 ovarian
HT29 colon = tested on: HT29 colon
HS 578T breast = tested on: HS 578T breast
HL-60(TB) leukemia = tested on: HL-60(TB) leukemia
NCI-H460 lung = tested on: NCI-H460 lung
SK-MEL-5 melanoma = tested on: SK-MEL-5 melanoma
HCT-15 colon = tested on: HCT-15 colon
SK-MEL-28 melanoma = tested on: SK-MEL-28 melanoma
SF-539 CNS = tested on: SF-539 CNS
SNB-75 CNS = tested on: SNB-75 CNS
HCC-2998 colon = tested on: HCC-2998 colon
RPMI-8226 leukemia = tested on: RPMI-8226 leukemia
SR leukemia = tested on: SR leukemia
MDA-MB-231 breast = tested on: MDA-MB-231 breast
RXF 393 renal = tested on: RXF 393 renal

SMILES: Cc1cc(C)c(S(=O)(=O)N2CCN(S(=O)(=O)c3c(C)cc(C)cc3C)OCCCCCO2)c(C)c1
- TGI (MDA-N): > 100 µM
- TGI (LOX IMVI melanoma): > 100 µM
- TGI (IGROV1 ovarian): > 100 µM
- TGI (SK-OV-3 ovarian): > 100 µM
- TGI (SNB-19 CNS): > 100 µM
- TGI (A498 renal): > 100 µM
- TGI (SW-620 colon): > 100 µM
- TGI (COLO 205 colon): > 100 µM
- TGI (K-562 leukemia): > 100 µM
- TGI (HCT-116 colon): > 100 µM
- TGI (HOP-92 NSCLC): > 100 µM
- TGI (A549 NSCLC): > 100 µM
- TGI (MOLT-4 leukemia): > 100 µM
- TGI (NCI-H226 lung): > 100 µM
- TGI (TK-10 renal): > 100 µM
- TGI (BT-549 breast): > 100 µM
- TGI (SN12C renal): > 100 µM
- TGI (MDA-MB-435): > 100 µM
- TGI (OVCAR-4 ovarian): > 100 µM
- TGI (786-0 renal): > 100 µM
- TGI (SF-295 CNS): > 100 µM
- TGI (UO-31 renal): > 100 µM
- TGI (HOP-62 NSCLC): > 100 µM
- TGI (OVCAR-8 ovarian): > 100 µM
- TGI (NCI-H522 lung): > 100 µM
- TGI (NCI/ADR-RES ovarian): > 100 µM
- TGI (CAKI-1 renal): > 100 µM
- TGI (EKVX NSCLC): > 100 µM
- TGI (MALME-3M melanoma): > 100 µM
- TGI (U251 CNS): > 100 µM
- TGI (OVCAR-3 ovarian): > 100 µM
- TGI (UACC-62 melanoma): > 100 µM
- TGI (M14 melanoma): > 100 µM
- TGI (NCI-H23 lung): > 100 µM
- TGI (MCF7 breast): > 100 µM
- TGI (SK-MEL-2 melanoma): > 100 µM
- TGI (DU-145 prostate): > 100 µM
- TGI (CCRF-CEM leukemia): > 100 µM
- TGI (KM12 colon): > 100 µM
- TGI (ACHN renal): > 100 µM
- TGI (PC-3 prostate): > 100 µM
- TGI (SF-268 CNS): > 100 µM
- TGI (UACC-257 melanoma): > 100 µM
- TGI (OVCAR-5 ovarian): > 100 µM
- TGI (HT29 colon): > 100 µM
- TGI (HS 578T breast): > 100 µM
- TGI (HL-60(TB) leukemia): > 100 µM
- TGI (NCI-H460 lung): > 100 µM
- TGI (SK-MEL-5 melanoma): > 100 µM
- TGI (HCT-15 colon): > 100 µM
- TGI (SK-MEL-28 melanoma): > 100 µM

SMILES: COc1nc(N)c(C#N)c(C#N)c1C#N
- TGI (MDA-N): > 10 µM
- TGI (LOX IMVI melanoma): > 10 µM
- TGI (SK-OV-3 ovarian): > 10 µM
- TGI (SNB-19 CNS): > 10 µM
- TGI (SF-539 CNS): > 10 µM
- TGI (SW-620 colon): > 10 µM
- TGI (COLO 205 colon): > 10 µM
- TGI (K-562 leukemia): > 10 µM
- TGI (HCT-116 colon): > 10 µM
- TGI (HOP-92 NSCLC): > 10 µM
- TGI (SNB-75 CNS): > 10 µM
- TGI (A549 NSCLC): > 10 µM
- TGI (MOLT-4 leukemia): > 10 µM
- TGI (HCC-2998 colon): > 10 µM
- TGI (TK-10 renal): > 10 µM
- TGI (BT-549 breast): > 10 µM
- TGI (SN12C renal): > 10 µM
- TGI (MDA-MB-435): > 10 µM
- TGI (RPMI-8226 leukemia): > 10 µM
- TGI (OVCAR-4 ovarian): > 10 µM
- TGI (786-0 renal): > 10 µM
- TGI (SF-295 CNS): > 10 µM
- TGI (HOP-62 NSCLC): > 10 µM
- TGI (OVCAR-8 ovarian): > 10 µM
- TGI (NCI-H522 lung): > 10 µM
- TGI (NCI/ADR-RES ovarian): > 10 µM
- TGI (CAKI-1 renal): > 10 µM
- TGI (MALME-3M melanoma): > 10 µM
- TGI (U251 CNS): > 10 µM
- TGI (OVCAR-3 ovarian): > 10 µM
- TGI (M14 melanoma): > 10 µM
- TGI (NCI-H23 lung): > 10 µM
- TGI (MCF7 breast): > 10 µM
- TGI (DU-145 prostate): > 10 µM
- TGI (KM12 colon): > 10 µM
- TGI (ACHN renal): > 10 µM
- TGI (PC-3 prostate): > 10 µM
- TGI (SF-268 CNS): > 10 µM
- TGI (SR leukemia): > 10 µM
- TGI (UACC-257 melanoma): > 10 µM
- TGI (OVCAR-5 ovarian): > 10 µM
- TGI (HT29 colon): > 10 µM
- TGI (HS 578T breast): > 10 µM
- TGI (HL-60(TB) leukemia): > 10 µM
- TGI (MDA-MB-231 breast): > 10 µM
- TGI (SK-MEL-5 melanoma): > 10 µM
- TGI (HCT-15 colon): > 10 µM
- TGI (SK-MEL-28 melanoma): > 10 µM

SMILES: COC(=O)[C@H](NC(=O)OC(C)(C)C)[C@H]1COC(C)(C)O1
- TGI (MDA-N): > 100 µM
- TGI (LOX IMVI melanoma): > 100 µM
- TGI (IGROV1 ovarian): > 100 µM
- TGI (SK-OV-3 ovarian): > 100 µM
- TGI (SNB-19 CNS): > 100 µM
- TGI (A498 renal): > 100 µM
- TGI (SF-539 CNS): > 100 µM
- TGI (SW-620 colon): > 100 µM
- TGI (COLO 205 colon): > 100 µM
- TGI (K-562 leukemia): > 100 µM
- TGI (HCT-116 colon): > 100 µM
- TGI (A549 NSCLC): > 100 µM
- TGI (MOLT-4 leukemia): > 100 µM
- TGI (HCC-2998 colon): > 100 µM
- TGI (TK-10 renal): > 100 µM
- TGI (BT-549 breast): > 100 µM
- TGI (SN12C renal): > 100 µM
- TGI (MDA-MB-435): > 100 µM
- TGI (RPMI-8226 leukemia): > 100 µM
- TGI (OVCAR-4 ovarian): > 100 µM
- TGI (786-0 renal): > 100 µM
- TGI (SF-295 CNS): > 100 µM
- TGI (UO-31 renal): > 100 µM
- TGI (HOP-62 NSCLC): > 100 µM
- TGI (OVCAR-8 ovarian): > 100 µM
- TGI (NCI-H522 lung): > 100 µM
- TGI (NCI/ADR-RES ovarian): > 100 µM
- TGI (CAKI-1 renal): > 100 µM
- TGI (EKVX NSCLC): > 100 µM
- TGI (MALME-3M melanoma): > 100 µM
- TGI (U251 CNS): > 100 µM
- TGI (OVCAR-3 ovarian): > 100 µM
- TGI (UACC-62 melanoma): > 100 µM
- TGI (M14 melanoma): > 100 µM
- TGI (NCI-H23 lung): > 100 µM
- TGI (MCF7 breast): > 100 µM
- TGI (SK-MEL-2 melanoma): > 100 µM
- TGI (DU-145 prostate): > 100 µM
- TGI (CCRF-CEM leukemia): > 100 µM
- TGI (KM12 colon): > 100 µM
- TGI (ACHN renal): > 100 µM
- TGI (PC-3 prostate): > 100 µM
- TGI (SF-268 CNS): > 100 µM
- TGI (SR leukemia): > 100 µM
- TGI (UACC-257 melanoma): > 100 µM
- TGI (OVCAR-5 ovarian): > 100 µM
- TGI (HT29 colon): > 100 µM
- TGI (RXF 393 renal): > 100 µM
- TGI (HL-60(TB) leukemia): > 100 µM
- TGI (MDA-MB-231 breast): > 100 µM
- TGI (SK-MEL-5 melanoma): > 100 µM
- TGI (HCT-15 colon): > 100 µM
- TGI (SK-MEL-28 melanoma): > 100 µM

— PubChem BioAssay (NCI)
